These results are taken from US12377086B2, “Therapeutic methods, combinations and kits” (priority 2021, dated 2025).

Like-named read-outs stand apart in the source and are kept apart here. Some results are limits rather than exact numbers.

One data set has as its system VIM-2 expressing E. coli. It is filed as cell-based, Escherichia coli. To be noted: single dose; for VIM-2 expressing E. coli Amox (+) relative percentage growth compared to untreated cells: with 50 μM amoxicillin. As for the experimental part:
(§1) The optical density of the cell cultured was monitored at 600 nm (OD600 nm). The cells were cultured on 0.8 g/100 ml nutrient agar plate at pH 7.0 and 37° C. […] An overnight culture of the bacterial strain was sub-cultured to 0.06 OD600 nm into the NB medium and was then seeded at max 200 μl into the wells of a 96 well microtiter plate. Samples were then incubated at 37° C. and shaken at 200 rpm for 18 h. The absorbance was measured on an ELIZA plate reader and analyzed with the Gen5™ software suite (version 1.08).
(§2) • The data are reported as relative percentage growth compared to untreated cells.

For the next data set, the system named is E. coli. The class given is cell-based, Escherichia coli. As for the experimental part: as §1, §2
Data set [1] deals with T1, NDM-1 (Klebsiella pneumoniae, UniProt C7C422). Kind of data set: biochemical. How it is done: BL21 (DE3) E. coli cells containing the pET26b-ndm-1 plasmid were used to inoculate a 50 mL LB starter culture containing kanamycin (25 μg/mL). The culture was grown overnight at 37° C. The starter culture was then used to inoculate 4×1 L LB containing kanamycin (25 μg/mL). These flasks were incubated at 37° C. until culture reached an optical density of (OD600) of 0.6 to 0.8. The incubator was then set to 22° C. and the cultures were shaken for 30 min to allow them to cool. ZnCl2 ([…]) and IPTG (0.5 mM) were then added to the cultures and they were grown for 18 h at 22° C. The cells were then harvested using centrifugation (8000×g) for 10 min. The pellet was resuspended with 25 mL 50 mM HEPES, pH 7.5 containing 500 mM NaCl (Buffer B). Lysis was performed with three passes through a French Press. The lysate was centrifuged for 30 min (15,000×g) at 4° C. The supernatant was then dialyzed versus 2 L 50 mM HEPES, pH 7.5 (Buffer C) for 4 h. An FPLC was used to equilibrate a Q-Sepharose column using buffer C using a flowrate of 2.0 mL/min for 1.5 h. The lysate was then loaded onto the column and eluted with a linear NaCl gradient from 0-500 mM. Fractions containing NDM-1 were identified with SDS-PAGE. These fractions were pooled and concentrated to 2-3 mL in an Amicon ultracentrifugation concentrating unit with a YM-10 membrane. The resulting protein mixture was then loaded onto a Sephacryl S-200 gel filtration column run with 50 mM HEPES, pH 7.5 containing 150 mM NaCl (Buffer A). SDS-PAGE was used to identify fractions containing pure protein.
(§3) To identify potential MBL inhibitors, the relative change in the formation of hydrolyzed nitrocefin between treated and untreated MBL was determined as percentage inhibition. 5 nM of each BML was pre-incubated for 10 mins with 50 μM of each compound, followed by the addition of 10 μM nitrocefin.
(§4) Each MBL was incubated with 50 μM of each compound, followed by the addition of nitrocefin. The relative change in absorbance is reported as percentage inhibition.

For data set [2], the target named is T2, VIM-2 (Pseudomonas aeruginosa, UniProt Q5U7L7). As to conditions: after incubation with inhibitor and dialysis. As for the experimental part: VIM-2 was diluted to 6 μM with 50 mM HEPES, pH 7.5, containing 150 mM NaCl. The diluted protein solution was used to make several 5 mL aliquots. […] One aliquot contained one molar equivalent of inhibitor (6 μM), with respect to enzyme concentration, and the second aliquot contained two molar equivalents (12 μM). One aliquot contained no inhibitor. Each aliquot was then incubated for 4 h at 4° C. Following incubation, each aliquot was dialyzed versus 500 mL of 50 mM HEPES, pH 7.5, for 4 h at 4° C. The aliquots were analyzed using ICP-AES, as previously described REF. The emission wavelengths used were 213.856, 238.892, 259.940, 231.604, and 324.754 nm for Zn, Co, Fe, Ni, and Cu, respectively.
To further address the mode of action of 8-hydroxyquinolines, equilibrium dialysis experiments were conducted. […] EDTA, a well-known metal scavenger, inhibits all MBLs through a chelation mechanism (Bush, K.; Jacoby, G. A. Updated Functional Classification of beta-Lactamases. Antimicrobial Agents and Chemotherapy 2010, 54, 969-976).

Data set [3] has as its target T2, VIM-2. Kind of data set: biochemical. As for the experimental part:
The pET24a-VIM-2 plasmid was transformed into competent BL21 (DE3) E. coli cells. The cells were plated onto an LB-agar plate with kanamycin (25 μg/mL) and incubated overnight at 37° C. A single colony was used to inoculate 50 mL of LB, containing 25 μg/mL kanamycin, and the culture was shaken overnight at 37° C. From the overnight culture, 10 mL were transferred to 4×IL LB medium containing 25 μg/mL kanamycin. The cultures were grown at 37° C. until an optical density (OD600 nm) of 0.6-0.8 was reached, at which point protein production was induced with IPTG (0.5 mM) and ZnCl2 (100 μM). The temperature was reduced to 20° C., and the cells were shaken for an additional 18 h. The cultures were harvested by centrifugation (8 Kxg) for 10 min at 4° C. The resulting pellets were re-suspended in 25 mL of 50 mM HEPES, pH 7.5, containing 500 mM NaCl (buffer B). The cells were lysed with three passes through a French Press. The lysate was centrifuged (15 Kxg) for 30 min at 4° C. The supernatant was dialyzed against 2 L of 50 mM HEPES, pH 7.5 (buffer A), for 4 h. Buffer A was used to equilibrate a 25 mL Q-Sepharose column using an FPLC. The sample was loaded onto the column, and proteins were eluted with a linear gradient 0-500 mM NaCl with buffer B. Fractions containing VIM-2, determined by SDS-PAGE, were pooled and concentrated to 2-3 mL in an Amicon ultraconcentrator equipped YM-10 membrane. […] Fractions containing pure VIM-2 were pooled, and metal analysis was performed.
The enzyme inhibition constant (Ki) was derived from initial-velocity measurements by nonlinear regression using competitive-inhibition enzyme kinetics using Graphpad Prism 6.

In data set [4] the target is T2, VIM-2. Put plainly: biochemical. How it is done: The pET24a-VIM-2 plasmid was transformed into competent BL21 (DE3) E. coli cells. The cells were plated onto an LB-agar plate with kanamycin (25 μg/mL) and incubated overnight at 37° C. A single colony was used to inoculate 50 mL of LB, containing 25 μg/mL kanamycin, and the culture was shaken overnight at 37° C. From the overnight culture, 10 mL were transferred to 4×IL LB medium containing 25 μg/mL kanamycin. The cultures were grown at 37° C. until an optical density (OD600 nm) of 0.6-0.8 was reached, at which point protein production was induced with IPTG (0.5 mM) and ZnCl2 (100 μM). The temperature was reduced to 20° C., and the cells were shaken for an additional 18 h. The cultures were harvested by centrifugation (8 Kxg) for 10 min at 4° C. The resulting pellets were re-suspended in 25 mL of 50 mM HEPES, pH 7.5, containing 500 mM NaCl (buffer B). The cells were lysed with three passes through a French Press. The lysate was centrifuged (15 Kxg) for 30 min at 4° C. The supernatant was dialyzed against 2 L of 50 mM HEPES, pH 7.5 (buffer A), for 4 h. Buffer A was used to equilibrate a 25 mL Q-Sepharose column using an FPLC. The sample was loaded onto the column, and proteins were eluted with a linear gradient 0-500 mM NaCl with buffer B. Fractions containing VIM-2, determined by SDS-PAGE, were pooled and concentrated to 2-3 mL in an Amicon ultraconcentrator equipped YM-10 membrane. Further purification was conducted with a Sephacryl S-200 gel filtration column using 50 mM HEPES, pH 7.5, containing 150 mM NaCl. Fractions containing pure VIM-2 were pooled, and metal analysis was performed.
as §3, §4
This is another data set of the same source.

The conditions of data set [5]: cited from earlier work.
A further data set can be described thus: in vitro. As to conditions: human.
Data set [6] has as its target T1, NDM-1.
Procedure: Nitrocefin (Cayman, CAS 41906-86-9) was used as the chromogenic substrate for all biochemical assays. […] The rate of product formation was monitored based on the λmax=486 nm absorbance taken at 10 s intervals for 30 mins. […] Velocity versus substrate concentration curves were fitted by nonlinear regression using Michaelis-Menten Enzyme kinetics with Graphpad Prism 6.
For data set [7], the system named is VIM-2. To be noted: reported previously, cited from earlier work.
[8] abbreviates: 50 μM compound, 5 nM MBL, 10 μM nitrocefin, 30 mins.
[9] abbreviates: 50 μM compound, 5 nM MBL, 10 μM nitrocefin, 30 mins, read-out: NDM-1 percentage inhibition.
The mark [10] stands for this setting: 50 μM compound, 5 nM MBL, 10 μM nitrocefin, 30 mins, read-out: VIM-2 percentage inhibition.

T1 sequence (C7C422 whole entry, looked up, species assumed): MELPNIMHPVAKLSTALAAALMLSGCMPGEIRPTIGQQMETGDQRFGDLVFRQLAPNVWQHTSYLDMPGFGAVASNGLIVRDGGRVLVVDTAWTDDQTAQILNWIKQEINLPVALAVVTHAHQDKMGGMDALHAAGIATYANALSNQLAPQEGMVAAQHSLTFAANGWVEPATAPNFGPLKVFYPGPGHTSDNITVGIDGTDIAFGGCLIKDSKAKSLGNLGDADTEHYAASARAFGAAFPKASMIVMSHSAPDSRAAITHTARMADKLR
Procedure for in vitro: Human embryonic kidney cell line (HEK293) were grown in 100 mm cell culture petri dishes at 37° C. with 5% CO2 in Dulbecco's Modified Eagle's Medium high glucose medium containing 1% penicillin/streptomycin (Sigma-Aldrich, St. Louis, MO) and supplemented with 5% of fetal bovine serum (Thermo Fisher Scientific Gibco®). Cells under 10 passages and the 80% of monitored cell petri dish were used for experiment.
Cytotoxicity of tested compounds were estimated using the MTT method. Cell viability were measured by counting viable cells by using the 3 (4,5dimethylthiazol-2-yl)-2,5-diphenyltetrazolium bromide (MTT) (Sigma-Aldrich, St. Louis, MO) colorimetric dye-reduction assay. […] Following 24 h incubation and attachment, the cells were incubated for 72 h with different concentrations of inhibitors (0.01˜100 μM) in culture media without FBS. The Control cells were supplemented only with a medium without containing FBS. All samples in 96 well plate were incubated at 37° C. at an atmosphere of 5% CO2. […] The absorbance was measured using a micro-plate reader at wavelength 590 nm. The CC50 were obtained based on a comparison with untreated cells by fitting the data to a sigmoidal dose-response equation using Graphpad Prism 6.

Take `CC1(C)S[C@@H]2[C@H](NC(=O)[C@H](N)c3ccc(O)cc3)C(=O)N2[C@H]1C(=O)O` [Amox, amoxicillin]: the “VIM-2 expressing E. coli Amox (+) relative percentage growth compared to untreated cells” value in the data set with VIM-2 expressing E. coli came to 77%. Moreover, in the data set with E. coli, the “E. coli Amox (+) relative percentage growth compared to untreated cells” value amounted to 3.6% and the “growth inhibition of wild type E. coli” value is on record as “over 96%”.

As for `O=C(O)[C@H]1/C(=C/CO)O[C@@H]2CC(=O)N21` [Clav, Clavulanate], in the data set on VIM-2 expressing E. coli, the “VIM-2 expressing E. coli Amox (+) relative percentage growth compared to untreated cells” value is on record as 57%. In the data set with VIM-2 expressing E. coli (without amoxicillin), the “VIM-2 expressing E. coli Amox (−) relative percentage growth compared to untreated cells” value is 93%. The “E. coli Amox (+) relative percentage growth compared to untreated cells” value in the data set on E. coli (wild type E. coli, single dose, with 50 μM amoxicillin) is 2.9%. Besides, the “E. coli Amox (−) relative percentage growth compared to untreated cells” value in the data set with E. coli (wild type E. coli, single dose, without amoxicillin) came out at 86%.

Take `C[C@H](CS)C(=O)N1CCC[C@H]1C(=O)O` [Compound 1, L-captopril, reference compound]: on NDM-1 [1] (read-out: NDM-1 percentage inhibition, 50 μM compound, 5 nM MBL, 10 μM nitrocefin, 30 mins), the inhibition at 50 µM turned out to be 93%. Moreover, on VIM-2 [2], the “metal content of VIM-2 / removal of Zn(II) from the active site” value is listed as “relatively unaffected”.

`O=C(O)/C(S)=C\c1cccnc1` [Compound 5] registered an NDM-1 percentage inhibition on NDM-1 [1] (setting [8]) of 39%. The inhibition at 50 µM on NDM-1 [1] (setting [9]) was determined as 40%. For the same compound, on VIM-2 [3], the IC50 turned out to be 24 µM and affinity was put at a Ki of 4.5 µM. For the same compound, the inhibition at 50 µM at VIM-2 [4] (setting [10]) stood at 40%.

Consider `O=C(c1ccc(O)cc1)c1ccc(O)c(O)c1O` [Compound 13], for which, on NDM-1 [1] (setting [8]), the NDM-1 percentage inhibition is 36%. The inhibition at 50 µM on NDM-1 [1] (setting [9]) worked out at 40%. For the same compound, at VIM-2 [3], 81 µM corresponded to half-maximal inhibition (IC50) and the Ki turned out to be 8.8 µM. The same compound had a VIM-2 percentage inhibition at VIM-2 [4] (setting [8]) of 48%. For the same compound, the inhibition at 50 µM on VIM-2 [4] (setting [10]) was determined as 40%.

Regarding `O=C1[C@@H](c2ccccc2)SCN1O` [Compound 17], on NDM-1 [1] (setting [9]), the inhibition at 50 µM stood at 40%. Moreover, at VIM-2 [3], the midpoint of inhibition, the IC50, lay at 41 µM and the Ki was 5.3 µM. This compound gave a VIM-2 percentage inhibition on VIM-2 [4] (setting [8]) of 33%. Besides, the inhibition at 50 µM at VIM-2 [4] (setting [10]) is 40%.

As for `Oc1cccc2cccnc12` [Compound 31, 8-Hydroxyquinoline], in [5] (hydroxyl group), the “pKa, hydroxyl group” value is 9.89. Also, the “pKa, nitrogen atom” value in [5] (nitrogen atom) is listed as 5.13. In addition, the “metal content of VIM-2 / removal of Zn(II) from the active site” value at VIM-2 [2] is given as “do not inhibit VIM-2 by removal of Zn(II)”. At VIM-2 [3], this compound registered an IC50 of 3.6 µM and an inhibitory constant (Ki) of 0.67 µM. The VIM-2 percentage inhibition on VIM-2 [4] (setting [8]) came to 98%. Also, the inhibition at 50 µM on VIM-2 [4] (read-out: VIM-2 percentage inhibition, 50 μM compound, 5 nM MBL, 10 μM nitrocefin, 30 mins) is > 96%.

`Cc1ccc2c(Cl)cc(Cl)c(O)c2n1` [Compound 50]: the IC50 on VIM-2 [3] (5 nM MBL, 10 μM nitrocefin, read-out: VIM-2 IC50) is 4.8 µM. At VIM-2 [3] (nitrocefin substrate, competitive-inhibition fit, read-out: VIM-2 Ki), the Ki was found to be 0.96 µM. In addition, at VIM-2 [4] (setting [8]), the VIM-2 percentage inhibition worked out at 95%.

`O=C(O)c1cccc(=S)n1O` [Compound 51, 1-hydroxypyridine-2 (1H)-thione-6-carboxylic acid, reference compound] showed a CC50 at 72 h in “in vitro” of 92 µM. On VIM-2 [3], this compound had an IC50 of 0.31 µM and a Ki of 0.02 µM.

`O=C(O)CN(CCN(CC(=O)O)CC(=O)O)CC(=O)O` [EDTA]: the “Zn(II) removed from VIM-2” value at VIM-2 [2] is reported as 1 equivalent of Zn(II).

In the case of `O=C(Cc1cccs1)N[C@@H]1C(=O)N2C(C(=O)O)=C(/C=C/c3ccc([N+](=O)[O-])cc3[N+](=O)[O-])CS[C@H]12` [nitrocefin, Nitrocefin], the “kcat, hydrolysis of nitrocefin by NDM-1” value at NDM-1 [6] stood at 25 s⁻¹. Also, the Km is 2.2 µM at NDM-1 [6] (read-out: Km, hydrolysis of nitrocefin by NDM-1) and 23 µM in the data set with VIM-2 [7] (read-out: Km, hydrolysis of nitrocefin by VIM-2). The “kcat, hydrolysis of nitrocefin by VIM-2” value in the data set with VIM-2 [7] was 212 s⁻¹.
